Patent publication US20140088144A1, “INHIBITING MICROBIAL INFECTIONS” (THE UNIVERSITY OF KANSAS, priority 2012, published 2014)

Columns and labels:
Shigella = Shigella growth; type: cell-based, S. flexneri
RhaS = RhaS (Escherichia coli, UniProt P09377); assay: In vivo dose-response, RhaS-activated rhaB-lacZ reporter fusion (β-galactosidase); type: cell-based, E. coli; settings: full-length RhaS
Source text: For dose-response studies, a rhaB-lacZ reporter strain was designed that allowed IPTG induction of RhaS or RhaS(163-278) expression from pHG165 (and thus rhaB-lacZ expression). The strain was constructed by introducing malP::lacIq into SME3000 via phage P1vir-mediated generalized transduction. First, SME3000 was transduced with Δcrp-3 zhc-511::Tn10 from SME1403, selecting for tetracycline resistance and screening for sorbitol deficiency (indicating Δcrp) using MacConkey sorbitol. SME3000 Acrp-3 zhc-511::Tn10 was transduced with crp^+ malP::lacI^q from SG22166, selecting for growth on minimal sorbitol and screening for maltose deficiency (indicating malP::lacI^q) using MacConkey maltose. Finally, SME3000 malP::lacI^q zhc-511::Tn10 was transduced with recA::cat from SME1048 by selecting for chloramphenicol resistance, to make strain SME3632.
The top hit identified in the screen was 1-ethyl-4-(nitromethyl)-3-quinolin-2-yl-4H-quinoline, Compound 2. The closely related compound, Compound 1,1-butyl-4-(nitromethyl)-3-quinolin-2-yl-4H-quinoline, was obtained from eMolecules, Inc. (Solana Beach, Calif.; catalog #3761-0013) or Princeton BioMolecular Research (Princeton, N.J.; catalog #OSSL—051168), with the Princeton named used here. […] Lysis/ONPG buffer (50 μL, as in Primary Screen) was added to each well and the plate was immediately placed into a PowerWave XS plate reader (BioTek Instruments, Inc., Winooski, Vt.), set to read the OD420 of each well every 15 min for 4 hr. […] Due to differences in kinetics of lacZ reporter expression, the rhaB-lacZ strains were analyzed at 4 hours and the hts-lacZ strain was analyzed at 1 hr. Percent activity was calculated for each condition as described above, using the single time point with appropriate OD420 levels for each strain. […] IC50 and maximal inhibition values were calculated using the XLfit add-in for Microsoft Excel (ID Business Solutions, Guildford, UK), and graphs were drawn using Prism (GraphPad, La Jolla, Calif.).

[1] = system: human epithelial cells (HeLa); assay: Alamar Blue [resazurin] metabolic activity of tissue culture cells used in invasion assays; type: cell-based
Source text: We expect that Compound 1 can impact host cell interaction but have little or no effect on growth rate of Shigella, based on our results with non-pathogenic E. coli strains.

VirF = VirF (Shigella flexneri, UniProt P0A2T1); assay: % Inhibition at 82.5 μM, VirF; type: cell-based; settings: 82.5 μM
Chain of VirF (P0A2T1 whole entry): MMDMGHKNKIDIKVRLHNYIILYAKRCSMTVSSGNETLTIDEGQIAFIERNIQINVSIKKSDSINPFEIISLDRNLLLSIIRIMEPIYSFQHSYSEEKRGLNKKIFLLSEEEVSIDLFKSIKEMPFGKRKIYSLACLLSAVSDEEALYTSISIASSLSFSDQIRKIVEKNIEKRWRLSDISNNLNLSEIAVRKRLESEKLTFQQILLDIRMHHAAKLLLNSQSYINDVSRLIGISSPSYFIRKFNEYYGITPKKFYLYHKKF

MBP-VirF = target: T1, MBP-VirF (Shigella flexneri, UniProt P0A2T1); assay: Fluorescence-based thermal shift assay (Sypro Orange), VirF; type: binding
T1 construct: made in house; host or cells: E. coli KS 1000, plasmid pMALvirF
T1 sequence (P0A2T1 whole entry): as above
Protocol: Binding of SE-1 to purified VirF was tested by comparing the VirF melting temperature (Tm) in the absence and presence of SE-1 using a thermal shift assay with the fluorescent dye Sypro Orange (Molecular Probes). This method is also known as differential scanning fluorimetry or DSF. As a control, we tested binding of SE-1 to the purified, unrelated, MBP-NS1-NTD protein (greater than 95% pure). […] The reactions were carried out in 0.1 ml PCR low profile 8-tube strips with optically clear flat caps (USA Scientific) in a StepOnePlus™ Real-Time PCR System (Applied Biosystems), heating from 25 to 99° C. in increments of 0.8° C. The data was analyzed using the Boltzmann sigmoidal model in the software Prism (GraphPad). Data points before and after the fluorescence intensity minimum and maximum, respectively, were excluded from fitting. The ΔTm values are the average of three independent experiments with two replicates in each experiment. A single, representative, experiment is shown.

L-929 cells = assay: AlamarBlue metabolic activity / viability assay; type: cell-based, mouse
Protocol: AlamarBlue® assays were performed as a control to test whether SE-1 had any impact on the metabolic activity of the host cells, as follows: L-929 cells were seeded into 96-well plates and grown overnight to ˜90% confluency. SE-1 was serially diluted in RPMI supplemented with 10 μg/ml gentamycin and 5% FBS, added to the wells, and incubated at 37° C. for 3 h. Cells were washed with 200 μl Hank's buffered salt solution (Mediatech) and incubated with 200 μl RPMI (without phenol red) containing 10% AlamarBlue® (also known as Resazurin, Invitrogen, Grand Island, N.Y.). Following 8 h incubation at 37° C., the absorbance was measured at 570 nm and 600 nm using a PowerWave XS plate reader, and the metabolic activity of the cells (as a percentage of untreated controls) was calculated using the following formula provided by the manufacturer: (117,216×A570−80,586×A600)/(117,216×A′570−80,586×A′600)×100, where A is the absorbance of test wells, and A′ is the absorbance of positive control wells (mock-infection).

Chain of RhaS (P09377 whole entry, the tested form may be a part): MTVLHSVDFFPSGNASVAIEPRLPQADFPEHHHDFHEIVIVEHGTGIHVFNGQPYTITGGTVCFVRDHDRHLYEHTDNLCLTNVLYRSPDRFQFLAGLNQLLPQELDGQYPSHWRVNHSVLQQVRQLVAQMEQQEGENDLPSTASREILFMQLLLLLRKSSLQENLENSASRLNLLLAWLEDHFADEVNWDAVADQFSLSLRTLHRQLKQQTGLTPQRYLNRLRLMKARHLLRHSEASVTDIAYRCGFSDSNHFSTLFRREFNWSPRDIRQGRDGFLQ

`CCCCN1C=C(c2ccc3ccccc3n2)C(C[N+](=O)[O-])c2ccccc21` (centres unmarked) [Compound 1, 1-butyl-4-(nitromethyl)-3-quinolin-2-yl-4H-quinoline] was tested, and the “growth of S. flexneri samples” value (Shigella; 80 μM SE-1, virB-lacZ strain) was “exhibited growth defects”, the “decrease in the Shigella growth rate” value (Shigella; concentrations up to 40 μM, SME4331) was “no detectable decrease” and the Shigella growth rate (Shigella; strain M90T, invasion study with human epithelial cells) was “not the Shigella growth rate”. The “inhibition of the RhaS-activated fusion” value (RhaS; rhaB-lacZ) was “fully inhibit expression”, the IC50 (RhaS; rhaB-lacZ (SME3634), read-out: IC50, expression of the RhaS-activated fusion) was ~30 µM and the “metabolic activity of the tissue culture cells” value [1] was “did not have any effect”. The “% Inhibition at 82.5 μM VirF” value (VirF) was 100%, the “ΔTm for VirF” value (MBP-VirF; 40 μM SE-1) was 0.15 °C and the “increase of Tm of VirF (ΔTm)” value (MBP-VirF; 80 μM SE-1, 1 μM VirF) was 0.61 °C. The host cell viability (L-929 cells; 40 μM SE-1) was “no effect” and the “viability of L-929 cells” value (L-929 cells; 0.2 and 0.4 μM SE-1) was “did not detectably decrease the viability”.
